Test results reported in PMC11451537, “P2X7 receptors exhibit at least three modes of allosteric antagonism” (Science Advances, 2024).
Residue numbers refer to the chain shown, from its start.

Legend:
Format in all cases: cell-based
rP2X7-K297V = molecular target: T1, rP2X7-K297V (Rattus norvegicus, UniProt Q64663, K297V); assay: TEVC inhibition dose-response, rP2X7-K297V mutant; conditions: signals evoked by 300 μM ATP, read-out: IC50 (inhibitory potency), K297V
T1 sequence (Q64663 1-595 K297V): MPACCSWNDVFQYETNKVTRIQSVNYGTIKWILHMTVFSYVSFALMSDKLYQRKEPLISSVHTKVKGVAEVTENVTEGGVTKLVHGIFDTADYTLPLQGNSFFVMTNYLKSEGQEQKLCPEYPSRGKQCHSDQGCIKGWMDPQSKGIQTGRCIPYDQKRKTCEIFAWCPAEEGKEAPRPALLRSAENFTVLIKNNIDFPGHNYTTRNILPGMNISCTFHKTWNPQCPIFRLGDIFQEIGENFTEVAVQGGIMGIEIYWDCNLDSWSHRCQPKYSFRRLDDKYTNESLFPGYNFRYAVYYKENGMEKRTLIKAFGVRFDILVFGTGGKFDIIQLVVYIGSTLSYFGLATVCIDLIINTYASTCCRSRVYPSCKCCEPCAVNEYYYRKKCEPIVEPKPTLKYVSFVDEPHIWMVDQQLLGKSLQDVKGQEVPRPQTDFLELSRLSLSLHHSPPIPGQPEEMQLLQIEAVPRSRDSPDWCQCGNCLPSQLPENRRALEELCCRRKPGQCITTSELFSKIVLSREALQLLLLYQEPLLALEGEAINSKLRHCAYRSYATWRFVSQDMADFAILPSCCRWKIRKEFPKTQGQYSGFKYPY
Excerpt: (§1) Structural determination of the full-length, wild-type rP2X7 was completed using a construct previously described containing no truncations or mutations ([16]). Furthermore, the rP2X7-WT construct used for electrophysiology experiments is unmodified full-length, wild-type rP2X7 with no green fluorescent protein (GFP), protease sites, or affinity tags present. The hP2X1-WT, hP2X2-WT, hP2X3-WT, hP2X4-WT, and hP2X7-WT constructs used for electrophysiology are similarly unmodified full-length, wild-type receptor constructs with no GFP, protease sites, or affinity tags present. Mutations to the rP2X7-WT construct used for electrophysiology experiments were made directly in the pcDNA3.1x plasmid. These constructs included the following: rP2X7-K297A, rP2X7-K297G, rP2X7-K297M, rP2X7-K297Q, rP2X7-K297V, rP2X7-Y298A, rP2X7-Y298G, rP2X7-Y298V, rP2X7-Y298L, rP2X7-R316A, rP2X7-R316G, rP2X7-R316Q, rP2X7-R316H, rP2X7-F88A, rP2X7-F103A, and rP2X7-Y295A.
(§2) To evaluate the inhibitory response of an antagonist for a dilution series, an initial excitatory signal was evoked at a subtype-specific concentration of ATP. Next, the antagonist was applied at a test concentration for 60 s and then coapplied at the same test concentration of the antagonist with the identical subtype-specific concentration of ATP. The antagonized signal was then normalized against the preceding excitatory signal evoked by ATP for each individual oocyte tested. The pre- and post-antagonist signals were evoked by 10 μM ATP for hP2X1, 10 μM ATP for hP2X2, 1 μM ATP for hP2X3, 50 μM ATP for hP2X4, and 100 μM ATP for P2X7. For the K297V mutation in rP2X7, pre- and post-antagonist signals were evoked by 300 μM ATP. Each dataset was then fit to a nonlinear regression named “[inhibitor] vs. response – Variable slope (four parameters)” in GraphPad Prism 9 to produce a sigmoidal curve and afford an IC50 value. Each singular condition was used to generate an average which is reported plus or minus its SD between three discrete trials.

rP2X7-F103A = molecular target: T2, rP2X7-F103A (Rattus norvegicus, UniProt Q64663, F103A); assay: TEVC inhibition dose-response, rP2X7-F103A mutant; conditions: for IC50: reduced expression and variable response to ATP, read-out: IC50 (inhibitory potency), F103A
T2 sequence (Q64663 1-595 F103A): T1 sequence (Q64663 1-595 K297V) with F103A, V297K
Excerpt: as §1, §2

rP2X7 = molecular target: T3, rP2X7 (Rattus norvegicus, UniProt Q64663); assay: TEVC inhibition dose-response (IC50), wild-type rP2X7 in Xenopus laevis oocytes; design: the rP2X7-WT construct used for electrophysiology experiments is unmodified full-length, wild-type rP2X7; expressed in transfected cells; host or cells: Xenopus laevis oocytes injected with mRNA made from pcDNA3.1x; conditions: for IC100 (100% inhibitory concentration): calculated from IC50 values, concentration applied in the recovery experiments; for IC50: wild-type rP2X7, TEVC, 100 μM ATP, 60 s antagonist pre-application, mean ± SD, triplicate
T3 sequence (Q64663 1-595): T1 sequence (Q64663 1-595 K297V) with V297K
Excerpt: as §2

| Structure (SMILES) | IC50 (rP2X7-K297V) | IC50 (rP2X7-F103A) | IC100 (100% inhibitory concentration) (rP2X7) | IC50 (rP2X7) | inhibition at 625 nM, F103A (rP2X7-F103A; 625 nM antagonist) | inhibition at 30 µM (rP2X7-F103A; 30 µM antagonist) |
| --- | --- | --- | --- | --- | --- | --- |
| Clc1cccc(-c2nnnn2Cc2cccnc2)c1Cl [A438079] | 110 ± 90 nM | > 10000 nM | 6.6 µM | 550 ± 113 nM |  |  |
| Clc1cccc(-n2nnnc2NCc2ccccc2Oc2ccccn2)c1Cl [A839977] | 3.2 ± 0.6 nM | > 1000 nM | 1 µM | 116 ± 13 nM |  |  |
| O=C(NCC12CC3CC(CC(C3)C1)C2)c1cc(CCCNCCCO)ccc1Cl [AZD9056] | 12 ± 1 nM | > 10000 nM | 3 µM | 300 ± 100 nM |  |  |
| CN1C(=O)CC[C@H]1C(=O)NCc1cccc(C(F)(F)F)c1Cl [GSK1482160] | 1300 ± 400 nM | > 20000 nM | 81 µM | 3600 ± 500 nM |  |  |
| O=C(NCC1(N2CCN(c3ccccc3)CC2)CCOCC1)c1cccnc1Sc1ccccc1 [JNJ47965567] | 21 ± 6 nM |  | 1.3 µM | 22 ± 6 nM | 50-80% |  |
| O=S(=O)(O)c1ccc(N=C2C=CC(=C(c3ccc(Nc4ccc(S(=O)(=O)O)cc4)cc3)c3ccc(Nc4ccc(S(=O)(=O)O)cc4)cc3)C=C2)cc1 [methyl blue] | 4000 ± 1000 nM |  | 108 µM | 4000 ± 1000 nM |  | 50 to 75% |
